Reference: patent US11766434B2, “Pyrimidinone derivatives as CDC7 inhibitors” (Cancer Research Technology Limited, priority 2016, dated 2023)

What was measured:
Cdc7/Dbf4 = Cdc7/Dbf4 (Homo sapiens, UniProt O00311); experiment: Cdc7 biochemical assay Method 2: Cdc7/Dbf4 Enzyme TR-FRET Assay measuring pS40MCM2; conditions: pS40 MCM2 peptide, 1 μM ATP, 25° C., 120 minutes, read-out: Biochemical Method 2 (pIC50) (converted)
Experimental: This protocol describes a method for assaying a compounds' ability to inhibit Cdc7 activity by measuring pS40MCM2 levels in a Cdc7/Dbf4 Enzyme TR-FRET Assay.
2.5 nM Cdc7/Dbf4 was incubated with 100 nM of biotin-labelled peptide 35-TDALTS(pS)PGRDLP in the presence of 1 μM ATP at 25° C. for 120 minutes. The phosphorylation of the peptide was detected using TR-FRET. Anti-Mcm2 (pS40) antibody, Terbium anti-rabbit secondary antibody and Streptavidin-Alexa Fluor488 form the detection system.

Cdc7 [1] = target: T1, Cdc7 (Homo sapiens, UniProt O00311); experiment: Cdc7 cell pharmacodynamics assay Method 2: pS40MCM2 levels in HCT116 cells; type: cell-based; parameters: endogenous in cells; conditions: 18 hours treatment, read-out: Biomarker Method 2 (pEC50) (converted)
T1 sequence (O00311 whole entry): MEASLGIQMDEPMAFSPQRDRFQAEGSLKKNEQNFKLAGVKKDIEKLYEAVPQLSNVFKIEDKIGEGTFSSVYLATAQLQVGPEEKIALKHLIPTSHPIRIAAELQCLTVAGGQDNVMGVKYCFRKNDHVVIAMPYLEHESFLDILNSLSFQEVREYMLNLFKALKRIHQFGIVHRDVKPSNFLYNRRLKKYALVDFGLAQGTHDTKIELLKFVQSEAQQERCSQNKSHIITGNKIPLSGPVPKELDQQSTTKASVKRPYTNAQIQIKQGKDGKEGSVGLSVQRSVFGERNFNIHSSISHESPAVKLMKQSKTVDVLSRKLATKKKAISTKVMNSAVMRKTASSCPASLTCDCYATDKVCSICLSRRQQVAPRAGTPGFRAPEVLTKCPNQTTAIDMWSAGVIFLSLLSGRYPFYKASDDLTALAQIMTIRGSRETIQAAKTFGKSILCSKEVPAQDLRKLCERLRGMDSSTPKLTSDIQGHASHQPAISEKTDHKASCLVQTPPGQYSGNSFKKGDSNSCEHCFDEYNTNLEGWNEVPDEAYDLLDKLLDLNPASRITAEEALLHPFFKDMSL
T1 sequence (Q9UBU7 whole entry partner): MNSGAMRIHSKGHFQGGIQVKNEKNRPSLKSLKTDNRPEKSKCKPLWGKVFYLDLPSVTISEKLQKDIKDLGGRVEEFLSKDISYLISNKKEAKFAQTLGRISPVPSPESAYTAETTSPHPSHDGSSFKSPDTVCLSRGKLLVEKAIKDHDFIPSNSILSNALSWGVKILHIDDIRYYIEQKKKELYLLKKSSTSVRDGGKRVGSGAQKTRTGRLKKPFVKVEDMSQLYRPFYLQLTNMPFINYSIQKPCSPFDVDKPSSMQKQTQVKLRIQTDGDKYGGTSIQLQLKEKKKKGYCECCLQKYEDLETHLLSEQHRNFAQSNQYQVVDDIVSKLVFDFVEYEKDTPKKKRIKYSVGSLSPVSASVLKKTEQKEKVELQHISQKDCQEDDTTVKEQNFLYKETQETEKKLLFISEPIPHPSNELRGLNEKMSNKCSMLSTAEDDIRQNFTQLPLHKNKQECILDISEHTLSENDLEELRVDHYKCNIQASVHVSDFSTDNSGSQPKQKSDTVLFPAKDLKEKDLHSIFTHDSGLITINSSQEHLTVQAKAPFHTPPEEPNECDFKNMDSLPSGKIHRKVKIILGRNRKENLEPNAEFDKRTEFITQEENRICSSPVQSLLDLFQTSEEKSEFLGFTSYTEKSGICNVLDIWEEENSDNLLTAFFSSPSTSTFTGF
Description: This protocol describes a method to investigate the inhibition of Cdc7 activity by measuring pS40MCM2 levels in cells, after treatment with compounds.
• HCT116 cells (ATCC, #CCL-247) • McCoys 5A with L-glutamine (Cellgro, #10-050-CV) • 10% FCS (Cellgro, #35-010-CV) • D-PBS without CaCl2 and MgCl2 (Cellgro, #21-031-CV) • Trypsin/EDTA (Cellgro, #25-052-CL) • BSA (Calbiochem, 126593) • Cell Extraction Buffer (Invitrogen FNN0011) • Protease inhibitor cocktail (Sigma P-2714) • PMSF 0.3M stock in DMSO (Sigma P7626) • Antibody—rabbit pMCM2 Ser40 (Abeam, AB133243) • Antibody—goat MCM2 (Bethyl #A300-122A) • Antibody—goat Anti Rabbit IgG HRP (Thermo, 31462) • SuperSignal ELISA Pico Chemiluminescent Substrate (Perbio Science UK Ltd 37069) • 10×PBS (Growcells, MRGF-6236) • Triton X100 (Sigma, P-T8787) • DMSO (Fisher, D128-1) • 2-Propanol (J. T. Baker, 9095-03) Method • Seed 1×10^6 HCT116 cells into each of two 175 cm^2 flask containing 30 mL Cell Growth Media and incubate at 37° C., 5% CO2 for 3 days. • Harvest the cells from one T175 cm^2 flask and count. • Dilute with Cell Growth Media to a cell density of 2×10^5. Dispense 100 μL to each well (20,000 HCT116 cells/well) of TC treated 96-well plate(s). • Allow cells to settle overnight in incubator set at 37° C. and 5% CO2. • Cell treatment: Transfer 0.25 μL/well from the compound plate to the wells of the cell plate(s). This is a 1:400 dilution of compound in the assay. • Once all cells are treated place the cells back to the incubator and incubate for 18 hours. • Dilute the capture antibody (total MCM2 #A300-122A) 1 in 250 in the required volume of PBS (5 mL per assay plate, plus 5 mL for dead volume) and add 50 μL to each well of a Hybond plate except wells A12 & B12. Seal the plate and incubate at room temperature fora minimum of 2 hours. • Defrost aliquot of Invitrogen Cell Extraction Buffer (FNN0011) on ice and supplement with appropriate volume of both Sigma protease inhibitor cocktail (P-2714) and PMSF (final cone 1 mM from a 1 M stock in DMSO). • After the 6 hour or 18 hour cell treatment time, tap out the media from the assay plates and place them in the −70° C. freezer for at least 5 minutes. • Flick out the remaining liquid in the previously prepared capture Ab plate(s) and add 200 μL 2% BSA per well. Incubate for 1 hour at room temperature. • Remove plates from freezer and add 20 μL of ice cold complete lysis buffer. Incubate cells for 30 minutes at 4° C. • Add 30 μL per well 2% BSA • At the end of the 1 hour incubation, wash the Capture/ELISA plate(s) with Wash Buffer on the BioTek plate washer. • Transfer 40 μL per well of the lysis plate(s) to the same wells in the Capture/ELISA plate. Incubate cells overnight at 4° C. • At the end of the overnight incubation, wash the ELISA plate(s) with Wash Buffer on BioTek plate washer. • Prepare Detection Antibody Buffer and dispense 50 μL to all wells of ELISA plate(s) except wells G1 & H1. Cover plate and incubate at room temperature for 2 hours with gentle shaking. • At the end of the 2 hour incubation, wash the ELISA plate(s) with Wash Buffer on the BioTek plate washer. • Prepare the Conjugated Antibody Buffer and dispense 50 μL to all wells of ELISA plate(s). • Cover the plate and incubate at room temperature for 1 hour with gentle shaking. • At the end of the 1 hour incubation, wash the ELISA plate(s) with Wash Buffer on the BioTek plate washer. • Prepare Substrate Buffer and dispense 50 μL to all wells of ELISA plate(s). • Incubate for a minimum of 10 minutes and read plates on the EnVision 2100 Multilabel Reader (Mirror: Luminescence (404) & Luminescence 700 (212); Measurement Height: 6.5 mm; Measurement Time: 0.2 s). Method 3

Cdc7/ASK = Cdc7/ASK (Homo sapiens, UniProt O00311); experiment: Cdc7 biochemical assay Method 1: 384 well ELISA, MCM2 whole protein substrate, Phospho MCM2 (S53) antibody; parameters: purchased; conditions: ATP 2 μM, 90 minutes, read-out: Biochemical method 1 (pIC50) (converted)
Chain of Cdc7/ASK (O00311 whole entry): as the sequence (O00311 whole entry) above
Chain of Cdc7/ASK (Q9UBU7 whole entry partner): as the sequence (Q9UBU7 whole entry partner) above
Experimental: This protocol describes a method for assaying Cdc7/ASK for activity. The assay is a 384 well ELISA assay, utilising a whole protein substrate (MCM2) and an antibody against Phospho MCM2 (S53). This site is thought to be specific to Cdc7/ASK phosphorylation and the assay has been validated using knockout mutants.
• TBS: 25 mM Tris pH 7.2, 150 mM NaCl. (Dilute 10× stock by 1:10). • Wash Buffer: TBS+0.05% Tween 20. (Add 100 mL 1 M Tris pH 7.2, 120 mL 5 M NaCl and 2 mL 100% Tween 20 per 4 L). • Kinase Reaction Buffer: 50 mM Tris-HCl pH 8.5, 10 mM MgCl2, 1 mM DTT. (Dilute 10× stock by 1:10 and add 100 μL 1M DTT per 100 mL prior to assay). • Diethanolamine Buffer: 1 M diethanolamine pH 9.8, 0.5 mM MgCl2. • Stop Solution: 1 M NaOH. • MCM2 was expressed and purified in-house and used in the assay at a final assay concentration of 436 ng/well. • Cdc7/ASK is purchased from commercial suppliers and used in the assay at a final assay concentration of 37.97 ng/well or 20.63 nM. • ATP used as a final assay concentration of 2 μM. • Primary Antibody: Rabbit anti-Phospho MCM2 (S53 Antibody (BL3353)), is purchased from commercial suppliers at 0.2 mg/mL and used at a final assay concentration by diluting 1:800 in TBS. • Secondary Antibody: Anti-Rabbit/AP Antibody is supplied is purchased from commercial suppliers at 1 mg/mL and used at a final assay concentration by diluting 1:2000 in TBS. • Development Reagent: Dissolve one 20 mg PNPP tablet (Sigma, product N2765, 20 mg per tablet) per 20 mL diethanolamine Buffer (or one 5 mg PNPP tablet per 5 mL diethanolamine buffer). Cover in foil and leave shaking on a roller shaker at room temperature for up to an hour to dissolve. Methods • 1. Add 20 μL 1× working stock of Substrate (MCM2) in TBS to all wells of a clear, 384 well, Nickel-chelate microplate to give a final concentration of 250 ng/well. Incubate at room temperature for at least 1 hour. Plates can be pre-coated for 1 hour and stored at 4° C. for up to 8 days. • 2. Wash with TBS+0.05% Tween 20 (80 μL x 3). • 3. Add 2 μL 10× test compounds, including the positive control, in 40% DMSO/water to ‘test’ wells. Add 2 μL 40% DMSO/water to ‘control’ and ‘blank’ wells. The final DMSO concentration will be 4%. • 4. Add 13 μL CDCl7/ASK Kinase (1.5× stock) in Kinase Reaction Buffer to ‘test’ and ‘control’ wells to give a final concentration of […]. Add 13 μL Kinase Reaction Buffer to ‘blank’ wells. • 5. Add 5 μL ATP (4× stock) in Kinase Reaction Buffer to all wells to give a final concentration of 2 μM. • 6. Incubate at room temperature for 90 minutes. • 7. Wash with TBS+0.05% Tween 20 (80 μL x 3). • 8. Add 20 μL 1× working solution of Primary Antibody in TBS to all wells. Incubate at room temperature for 30 minutes. • 9. Wash with TBS+0.05% Tween 20 (80 μL x 3). • 10. Add 20 μL 1× working solution of Secondary Antibody in TBS to all wells. Incubate at room temperature for 30 minutes. • 11. Wash with TBS+0.05% Tween 20 (80 μL x 3). • 12. Add 20 μL 1× Development Reagent to all wells. • 13. Incubate at room temperature for 2 hours. Stop the reaction by adding 20 μL Stop Solution to all wells and record Absorbance on a Pherastar plate reader.
Percentage inhibition values were calculated from absorbance values, using the no compound (DMSO) and no enzyme control values as 0% and 100% inhibition, respectively. IC50 determination was performed with ExcelFit software (IDBS) using curve fit 205. Z′ factors were determined for each plate tested and were all above 0.5.

Cdc7 [2] = target: T1, Cdc7; experiment: Cdc7 cell pharmacodynamics assay Method 1: pS53MCM2 levels in HCT116 cells; type: cell-based; parameters: endogenous in cells; conditions: 6 hours treatment, read-out: Biomarker Method 1 (pEC50) (converted)
Description: This protocol describes a method to investigate the inhibition of Cdc7 activity of compounds by measuring pS53MCM2 levels in cells after treatment.
• HCT116 cells (wild type P53 positive) • McCoys 5A media (PAA Laboratories Ltd, E15-022) • 10% FCS (Sera Laboratories International Ltd, EU000F Batch: 108005) • 100× L-Glutamine (Invitrogen, 25030-024) • D-PBS without CaCl2 and MgCl2 (Invitrogen, ref. 14190-094) • Trypsin/EDTA (Invitrogen 25300-054) • 2% BSA in PBS • Cell Extraction Buffer (Invitrogen FNN0011) • Protease inhibitor cocktail (Sigma P-2714) • PMSF 0.3M stock in DMSO (Sigma P7626) • Antibody—rabbit pMCM2 Ser53 (Bethyl #A300-756A) • Antibody—goat MCM2 (Bethyl #A300-122A) • Antibody—goat Anti Rabbit IgG HRP (Perbio Science UK Ltd 31462) • 1×PBS • FACE Wash buffer (0.02% Triton X100 in 1×PBS) • SuperSignal ELISA Pico Chemiluminescent Substrate (Perbio Science UK Ltd 37070) Method • 72 hours prior to the start of the experiment plate 1×10^6 HCT116 cells in a 150 cm^2 flask in complete McCoys 5A media (+10% FCS+1× L-glutamine). • Plate 20,000 HCT116 cells per well in standard TC treated 96 well plate in 100 μL complete McCoys 5A media. • Allow cells to settle overnight in incubator set at 37° C. and 5% CO2. • Remove intermediate plate from fridge and place at 37° C. overnight to allow to equilibrate. • Cell treatment: cell assay plate 100 μL; daughter to cell transfer volume 3.33 μL; daughter volume 45 μL; mother plate to daughter volume 5 μL. • Once all cells are treated remove the cells to the incubator and incubate for 6 hours. • Dilute the capture antibody (total MCM2 #A300-122A) 1 in 250 in the required volume of PBS (5 mL per assay plate) and add 50 μL to each well of a Hybond plate excluding wells 12E to 12H. In these wells add 50 μL PBS. Seal the plate and incubate at room temperature fora minimum of 2 hours. • Defrost aliquot of Invitrogen Cell Extraction Buffer (FNN0011) on ice and supplement with appropriate volume of both Sigma protease inhibitor cocktail (P-2714) and PMSF (final cone 1 mM from a […] in DMSO). • After the 6 hour cell treatment time tap out the media from the assay plates and place them in the −70° C. freezer for at least 5 minutes. • Remove plates from freezer and add 20 μL of ice cold complete lysis buffer on ice. Incubate cells for 30 minutes at 4° C. • Add 80 μL per well 2% BSA. • Transfer 80 μL from the lysis plate to the same wells in the capture/ELISA plate. Cover with plate seal and incubate plates overnight at 4° C. • Wash plates with PBS, remove any residual remaining liquid and add 50 μL per well of pMCM2 Ser53 antibody (#A300-756A) diluted 1 in 100 in 2% BSA. Cover plate and incubate at room temperature for 2 hours with gentle shaking. • Wash plates with PBS, remove any residual remaining liquid and Incubate with 50 μL goat anti rabbit antibody (1 in 800 dilution in 2% BSA) for 1 hour at room temperature. • Wash plates with PBS, remove any residual remaining liquid and add 50 μL mixed SuperSignal Pico substrate. • Incubate each plate for 5 minutes at room temperature shielding the plates from direct light (with a cover plate). Read plates with the luminescent detection. Method 2

Chain of Cdc7/Dbf4 (O00311 whole entry): as the sequence (O00311 whole entry) above
Chain of Cdc7/Dbf4 (Q9UBU7 whole entry partner): as the sequence (Q9UBU7 whole entry partner) above

Row | Compound | IC50 (Cdc7/Dbf4) | EC50 (Cdc7 [1]) | IC50 (Cdc7/ASK) | EC50 (Cdc7 [2])
1 | Cc1[nH]ncc1-c1nc(N2CCOCC2)c(Cl)c(=O)[nH]1 [Compound 51, 5-chloro-2-(5-methyl-1H-pyrazol-4-yl)-4-morpholino-1H-pyrimidin-6-one] | 5.89 nM |  |  | 
2 | Cc1[nH]ncc1-c1nc(C2CCOCC2)c(Cl)c(=O)[nH]1 [Compound 16, 5-chloro-2-(3-methyl-1H-pyrazol-4-yl)-4-tetrahydropyran-4-yl-1H-pyrimidin-6-one] | 7.24 nM |  | 2.75 nM | 
3 | Cc1ncsc1-c1nc(N2CCN[C@@H](C(C)C)C2)c(Cl)c(=O)[nH]1 [Compound 39, 5-chloro-4-[(3S)-3-isopropylpiperazin-1-yl]-2-(4-methylthiazol-5-yl)-1H-pyrimidin-6-one] | 7.41 nM |  | 21.4 nM | 339 nM

Results, then the compound that gave them:

Row | IC50 (Cdc7/Dbf4) | EC50 (Cdc7 [1]) | IC50 (Cdc7/ASK) | EC50 (Cdc7 [2]) | Compound
4 | 72.4 nM |  |  |  | C[C@@H]1COCCN1c1nc(-c2cnn3ccccc23)[nH]c(=O)c1Cl [Compound 54, 5-chloro-4-[(3R)-3-methylmorpholin-4-yl]-2-pyrazolo[1,5-a]pyridin-3-yl-1H-pyrimidin-6-one]
5 |  | 100 nM |  |  | CC1CNCCN1c1nc(-c2c[nH]c3ncccc23)[nH]c(=O)c1Cl (stereo in doubt) [Compound 55, 5-chloro-4-[(2R)-2-methylpiperazin-1-yl]-2-(1H-pyrrolo[2,3-b]pyridin-3-yl)-1H-pyrimidin-6-one 2,2,2-trifluoroacetic acid]
